{"source": "paper PMC13197777", "about": "“Distinct 2-phenylimidazo[1,2-a]pyridine derivatives that inhibit breast cancer cell proliferation identified as AHR ligands” (iScience, 2026)", "key": {"[1]": {"test_system": "AHR target genes CYP1A1, CYP1B1, ALDH3A1", "conditions": "human, 16 h, 1 µM"}, "[2]": {"test_system": "ERα target genes (PGR, TFF1, PDZK1, GREB1)", "assay": "Quantitative RT-PCR of ER target genes in MCF-7 cells", "conditions": "MCF-7, 1 μM, absence and presence of 10 nM E2, 24 h"}}}
{"smiles": "Fc1ccc(-c2cn3cc(C(F)(F)F)cc(Cl)c3n2)cc1", "note": "[X15695]", "values": [{"measurement": "expression of AHR target genes (RT-PCR)", "setting": "[1]", "value": "enhanced the transcriptional activity of the AHR target genes in both MCF-7 and T47D cells"}]}
{"smiles": "Cc1cc(Cl)c2nc(-c3ccccc3)cn2c1", "note": "[X19728]", "values": [{"measurement": "expression of ERα target genes (RT-PCR)", "setting": "[2]", "value": "not significant in the presence of E2"}]}
